Source: US11130960B2, “Methods for conferring or enhancing herbicide resistance on plants and/or alga with protoporphyrinogen oxidase variants” (FARM HANNONG CO., LTD., priority 2014, dated 2021)

Legend:
CyPPO2 = assay: Growth inhibition of transformed PPO-deficient E. coli BT3(ΔPPO) on LB agar medium; format: cell-based, Oscillatoria nigro-viridis PCC 7112; conditions: 37° C., 16~20 hours
From the text: (§1) To test herbicide resistance of CyPPO2, CyPPO4, CyPPO8 and CyPPO12 isolated in Example 1, PPO-deficient BT3 E. coli [hereinafter, referred to as BT3(ΔPPO)] was transformed with CyPPO2, CyPPO4, CyPPO8 or CyPPO12 gene, respectively and then cultured in the presence of herbicides to examine growth inhibition of the transformed E. coli. As a negative control, Arabidopsis thaliana-derived wild-type PPO (wild-type AtPPO1) was used, and wild-type AtPPO1 has sensitivity to PPO-based herbicides and its sequence information is available in GeneBank accession no. AX084732 (a nucleotide sequence of the gene is represented by SEQ ID NO: 10, and an amino acid sequence thereof is represented by SEQ ID NO: 9). As a positive control, Mutant AtPPO1 was used, in which amino acid replacements of Y426M (replacement of tyrosine by methionine at position 426) and S305L (replacement of serine by leucine at position 305) occur in the amino acid sequence of the wild-type AtPPO1 (an amino acid sequence is represented by SEQ ID NO: 11) (Li X, Volrath S L., N D B. G., Chilcott C E, Johnson M A, Ward E R, Law M D (2003) Development of protoporphyrinogen oxidase as an efficient selection marker for Agrobacterium tumefaciens-mediated transformation of maize. Plant physiology 133:736-747).
(§2) BT3(ΔPPO) strain was provided by Hokkaido University (Japan) and it is an E. coli strain which is deficient in hemG-type PPO and has Kanamycin resistance (Watanabe et al., (2001) Dual targeting of spinach protoporphyrinogen oxidase II to mitochondria and chloroplasts by alternative use of two in-frame […] codons. JBC 2047420481).
(§3) HVE-50 autoclave from Hirayama, HS2100A electronic scale from Hansung Instrument, CB-30V clean bench from Jeio Tech, JSI-200CL incubator from JSR, 1210 type UV-visible spectrophotometer from Thermo Fisher Scientific, MQ-200 photometer from Apogee, and Bio-Rad MyCycler as PCR machine were used. The autoclave was used under conditions of 121° C. and 15 minutes, and the incubator was used at 37° C. with lighting of 160˜200 μmol m^−2 s^−1 for a culture time of 14˜20 hours. LB medium (10 g/L of Bacto-Tryptone, 5 g/L of Yeast extract, 10 g/L of sodium chloride, 15 g/L of Bacto agar) and an antibiotic Chloramphenicol (Duchefa) were used.
(§4) To clone each of the CyPPO2, CyPPO4, CyPPO8 and CyPPO12 genes isolated and amplified in Example 1 into pACBB (its structure is shown in FIG. 2), 10 μl of a solution containing 4 μl of each PPO gene, […], 1 μl of 10× buffer A, 1 μl of 10× buffer B, 1 μl of ligase (RBC, 3 unit/μl) was prepared and allowed to react at 22° C. for 30 minutes. The reaction solution was added to 100 μl of DH5 alpha competent cells, and allowed to react on ice for 20 minutes and then left at 42° C. for 40 seconds. Thereafter, the cells were left on ice for 2 minutes, and then 1 ml of LB broth was added thereto, followed by incubation with shaking at 37° C. for 1 hour. The strains having each gene insert in the culture medium were harvested, and then cultured on LB agar medium containing chloramphenicol.
(§5) For seed culture of E. coli transformed with respective genes, single colonies thereof were cultured in 3 ml of LB broth containing chloramphenicol overnight, and each 100 μl thereof was sub-cultured in 3 ml of fresh LB broth until absorbance (OD600) reached 0.5˜1. They were diluted with LB broth to absorbance (OD600) of 0.5. 10-fold dilution of this diluted solution was performed with LB broth five times. Next, 10 μl of the diluted solution of the transformed E. coli culture was dropped on LB agar medium (petri dish) containing chloramphenicol and a variety of herbicide stocks at different concentrations (0˜400 μM). The LB agar plates were incubated at 37° C. At 16˜20 hours after culture, growth inhibition was examined with the naked eye. Further, growth inhibition of the strains cultured in a medium containing Tiafenacil was examined under light (lighting of 169 μmol m^−2s^−1) and dark conditions.

CyPPO8 = assay: as above; format: cell-based, Halothece sp. PCC 7418; conditions: 37° C., 16~20 hours
From the text: as §1, §2, §3, §4, §5

SMILES	concentration at which growth inhibition was hardly observed (CyPPO2)	concentration at which growth inhibition was hardly observed (CyPPO8)
O=C(O)c1cc(Oc2ccc(C(F)(F)F)cc2Cl)ccc1[N+](=O)[O-] [Acifluorfen]	400 µM	400 µM
C=CCOC(=O)C(C)(C)OC(=O)c1cc(-n2c(=O)cc(C(F)(F)F)n(C)c2=O)ccc1Cl [Butafenacil]	25 µM	25 µM
C#CCN1C(=O)COc2cc(F)c(N3C(=O)C4=C(CCCC4)C3=O)cc21 [Flumioxazin]	25 µM	25 µM
COC(=O)CSc1cc(/N=c2\sc(=O)n3n2CCCC3)c(F)cc1Cl [Fluthiacet-methyl]	400 µM	400 µM
CS(=O)(=O)NC(=O)c1cc(Oc2ccc(C(F)(F)F)cc2Cl)ccc1[N+](=O)[O-] [Fomesafen]	400 µM	400 µM
CC(C)Oc1cc(-n2nc(C(C)(C)C)oc2=O)c(Cl)cc1Cl [Oxadiazon]	400 µM	400 µM
CCOc1cc(Oc2ccc(C(F)(F)F)cc2Cl)ccc1[N+](=O)[O-] [Oxyfluorfen]	400 µM	400 µM
CC(C)=C1OC(=O)N(c2cc(OC3CCCC3)c(Cl)cc2F)C1=O [Pentoxazone]	400 µM	400 µM
C#CCN(C)c1c(C#N)cnn1-c1nn2c(c1Cl)CCCC2 [Pyraclonil]	400 µM	400 µM
CCOC(=O)COc1cc(-c2nn(C)c(OC(F)F)c2Cl)c(F)cc1Cl [Pyraflufen-ethyl]	400 µM	400 µM
CC(C)N(C)S(=O)(=O)NC(=O)c1cc(-n2c(=O)cc(C(F)(F)F)n(C)c2=O)c(F)cc1Cl [Saflufenacil]	25 µM	25 µM
Cc1nn(-c2cc(NS(C)(=O)=O)c(Cl)cc2Cl)c(=O)n1C(F)F [Sulfentrazone]	400 µM	400 µM
COC(=O)CCNC(=O)C(C)Sc1cc(-n2c(=O)cc(C(F)(F)F)n(C)c2=O)c(F)cc1Cl (centres unmarked) [Tiafenacil]	25 µM	25 µM
